For data set [1], the system named is HL-60 (human acute myelocytic leukemia cells). Put plainly: Evaluation of antitumor activity, MTT viable cell count (modified Mosmann method). In kind it is cell-based. The conditions noted are these: read-out: IC50 (50% inhibitory concentration from viable cell count), HL-60 cells, 24 hours culture, average of at least three measured values. As for the experimental part: Cisplatin was also evaluated as a comparative example by the same method.
HL-60 (human acute myelocytic leukemia cells) was used as cancer cells. The cells were cultured in Rosewell Park Memorial Institute medium (RPMI 1640) supplemented with 10% fetal bovine serum, 1% antibiotic, and an antifungal agent in an atmosphere of 5% carbon dioxide in a moist incubator at 37° C.
The cells were washed with PBS. After the cell count was determined, a suspension (1×10^5 cells/mL) was prepared with the same medium. The suspension was seeded at a density of […] in a sterile 96-well microplate.
The prepared solutions were respectively added to the wells and cultured in the incubator for 24 hours.
The viable cell count was determined by a modified Mosmann method (T. Mosmann, J. Immunol. Method (1983) 65, 55-63). More specifically, a solution of a tetrazolium salt (3,[4,5-dimethylthiazole-2-yl]-2,5-diphenyltetrazolium bromide, MTT) was added to the wells. The wells were cultured for another 3 hours under the same conditions. Formazan crystals formed by the enzyme activity of mitochondria in the cells were dissolved in 0.04 mol/L HCl isopropyl alcohol solution, and the absorbance of each well was measured at 595 nm with a microplate reader (Bio-Rad 550). The background noises were canceled by subtracting the absorbance at 630 nm from the absorbance at 595 nm to obtain a viable cell count. […] For the calculation for IC50, at least three measured values obtained under the same conditions were averaged.

Data set [2] has as its system female Sprauge-Dawley SPF rats. Briefly: Toxicity test by single oral administration to rats. In kind it is in vivo, rat. On the procedure:
After female Sprauge-Dawley SPF rats (CrJ: CD (SD)) were quarantined and acclimated for about a week, healthy 8-week-old rats were selected in groups of five rats. The rats was fasted overnight before administration, and single oral doses of 20, 50, 100, and 300 mg/kg of the phosphine gold complex, and 10, 20, 50, and 100 mg/kg of cisplatin dissolved in corn oil were administrated the respective rats. The rats were observed 10 and 30 minutes and 1, 2, and 4 hours after administration, and further observed daily until the 14th day.

Consider “Bis(1,2-bis((2R,5R)-2,5-(dimethylphosphorano)benzene))gold (I) Chloride [Example 4]”, for which the IC50 in data set [1] was 542 nM. The “Change in general conditions, body weight and internal organs” value in data set [2] (single oral administration, over the period of the test (14 days)) was “no specific change in general conditions, body weight, and internal organs was observed”. The Survival of rats result in data set [2] (single oral doses of 20, 50, 100 and 300 mg/kg, until the 14th day) is recorded as “did not die even at the 14th day”.
As for “Bis(1,2-bis((2S,5S)-2,5-(dimethylphosphorano)benzene))gold (I) Chloride [Example 3]”, the IC50 in data set [1] is 3550 nM.
The same measure, in the same setting: to “Bis((+)-1,2-bis((2R,5R)-2,5-dimethylphosphorano)ethane)gold (I) Chloride [Example 1]” belongs 2750 nM; to “Bis((−)-1,2-bis((2S,5S)-2,5-dimethylphosphorano)ethane)gold (I) Chloride [Example 2]”, 1660 nM.

The values above are taken from patent publication US7655810B2, “Phosphine transition metal complex, method for producing the same, and antitumor agent containing the same” (Nippon Chemical Industrial Co., Ltd., priority 2005, dated 2010).
